# Assay results: BindingDB's records for doi:10.7270/Q2J67FB5 (Nmmlsc, 2007)
# Target: T1, fMet-Leu-Phe receptor (Homo sapiens, UniProt P21462)
# T1 sequence (P21462 whole entry): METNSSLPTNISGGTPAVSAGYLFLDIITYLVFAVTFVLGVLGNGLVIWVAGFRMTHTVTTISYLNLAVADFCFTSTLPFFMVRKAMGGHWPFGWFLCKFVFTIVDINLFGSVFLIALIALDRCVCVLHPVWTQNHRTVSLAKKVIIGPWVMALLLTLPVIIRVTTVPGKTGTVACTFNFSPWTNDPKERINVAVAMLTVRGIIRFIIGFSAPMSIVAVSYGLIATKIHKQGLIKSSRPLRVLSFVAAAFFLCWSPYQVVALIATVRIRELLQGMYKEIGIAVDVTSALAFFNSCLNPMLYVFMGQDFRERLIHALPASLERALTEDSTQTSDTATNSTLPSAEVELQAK
# Assay: formyl peptide receptor binders – dose response (AID 519)
row,IC50 [µM],Compound
1,> 66.7,C=CCOc1cccc(C2C(C(=O)c3ccco3)C(=O)C(=O)N2CCN2CCOCC2)c1 (stereo not given) [3-(furan-2-carbonyl)-4-hydroxy-1-(2-morpholin-4-ylethyl)-2-(3-prop-2-enoxyphenyl)-2H-pyrrol-5-one]
2,> 66.7,"Cc1ccc(C(=O)C2C(=O)C(=O)N(Cc3ccccc3)C2c2cccnc2)o1 (stereo not given) [1-benzyl-3-hydroxy-4-[(5-methylfuran-2-yl)carbonyl]-5-(pyridin-3-yl)-2,5-dihydro-1H-pyrrol-2-one]"
3,> 66.7,"Cc1ccc(C(=O)C2C(=O)C(=O)N(CCN3CCOCC3)C2c2cccnc2)cc1 (stereo not given) [(4Z)-4-[(4-methylphenyl)-oxidanyl-methylidene]-1-(2-morpholin-4-ylethyl)-5-pyridin-3-yl-pyrrolidine-2,3-dione]"
4,> 66.7,"O=C1C(=O)N(c2ncccn2)C(c2ccc(Cl)c(Cl)c2)C1C(=O)c1ccco1 (stereo not given) [2-(3,4-dichlorophenyl)-3-(furan-2-carbonyl)-4-hydroxy-1-pyrimidin-2-yl-2H-pyrrol-5-one]"
5,29.6,"COCCCN1C(=O)C(=O)C(C(=O)c2ccccc2)C1c1ccc2c(c1)OCO2 (stereo not given) [(4E)-5-(1,3-benzodioxol-5-yl)-1-(3-methoxypropyl)-4-[oxidanyl(phenyl)methylidene]pyrrolidine-2,3-dione]"
6,> 66.7,"COc1ccc(C(=O)C2C(=O)C(=O)N(c3nc(C)c(C)s3)C2c2ccco2)cc1 (stereo not given) [(4Z)-1-(4,5-dimethyl-1,3-thiazol-2-yl)-5-(furan-2-yl)-4-[(4-methoxyphenyl)-oxidanyl-methylidene]pyrrolidine-2,3-dione]"
7,57.5,"COc1cc(C2C(C(=O)c3ccc4c(c3)CC(C)O4)C(=O)C(=O)N2CCCn2ccnc2)ccc1O (stereo not given) [(4E)-1-(3-imidazol-1-ylpropyl)-5-(3-methoxy-4-oxidanyl-phenyl)-4-[(2-methyl-2,3-dihydro-1-benzofuran-5-yl)-oxidanyl-methylidene]pyrrolidine-2,3-dione]"
8,30.5,"O=C1C(=O)N(Cc2ccccc2)C(c2cccnc2)C1C(=O)c1ccco1 (stereo not given) [1-Benzyl-4-(furan-2-carbonyl)-3-hydroxy-5-pyridin-3-yl-1,5-dihydro-pyrrol-2-one]"
9,26.4,"COc1ccc(OC)c(C2C(C(=O)c3ccco3)C(=O)C(=O)N2CCCN2CCOCC2)c1 (stereo not given) [2-(2,5-dimethoxyphenyl)-3-(furan-2-carbonyl)-4-hydroxy-1-(3-morpholin-4-ylpropyl)-2H-pyrrol-5-one]"
10,> 66.7,O=C1C(=O)N(c2ncccn2)C(c2cccc(Cl)c2)C1C(=O)c1ccco1 (stereo not given) [2-(3-chlorophenyl)-3-(furan-2-carbonyl)-4-hydroxy-1-pyrimidin-2-yl-2H-pyrrol-5-one]
11,5,COC(=O)c1[nH]c(C)c(C(=O)C2C(=O)C(=O)N(CCN3CCOCC3)C2c2cccs2)c1C (stereo not given)
12,21.4,O=C1C(=O)N(CCOCCO)C(c2cccs2)C1C(=O)c1cccs1 (stereo not given) [1-[2-(2-hydroxyethyloxy)ethyl]-4-oxidanyl-2-thiophen-2-yl-3-thiophen-2-ylcarbonyl-2H-pyrrol-5-one]
13,9.9,CCOc1ccc(C2C(C(=O)c3ccco3)C(=O)C(=O)N2CCCn2ccnc2)cc1 (stereo not given) [2-(4-ethoxyphenyl)-3-(furan-2-carbonyl)-4-hydroxy-1-(3-imidazol-1-ylpropyl)-2H-pyrrol-5-one]
14,> 66.7,COc1cc(C2C(C(=O)c3ccc(C)o3)C(=O)C(=O)N2Cc2cccnc2)ccc1O (stereo not given) [2-(3-methoxy-4-oxidanyl-phenyl)-3-(5-methylfuran-2-yl)carbonyl-4-oxidanyl-1-(pyridin-3-ylmethyl)-2H-pyrrol-5-one]
15,21.1,"CCOc1ccc(C(=O)C2C(=O)C(=O)N(CC3CCCO3)C2c2ccc(C)o2)cc1 (stereo not given) [(4Z)-4-[(4-ethoxyphenyl)-hydroxymethylidene]-5-(5-methyl-2-furanyl)-1-(2-oxolanylmethyl)pyrrolidine-2,3-dione]"
16,> 66.7,"COc1cccc(C(=O)C2C(=O)C(=O)N(Cc3cccnc3)C2c2ccco2)c1 (stereo not given) [(4Z)-5-(2-furanyl)-4-[hydroxy-(3-methoxyphenyl)methylidene]-1-(3-pyridinylmethyl)pyrrolidine-2,3-dione]"
17,27,"COc1cc(C2C(C(=O)c3cccs3)C(=O)C(=O)N2Cc2ccco2)cc(OC)c1OC (stereo not given) [1-(2-furanylmethyl)-4-hydroxy-3-[oxo(thiophen-2-yl)methyl]-2-(3,4,5-trimethoxyphenyl)-2H-pyrrol-5-one]"
18,> 66.7,CCN(CC)c1ccc(C=NC(C#N)C(=N)C#N)cc1 (stereo not given) [SMR000023871]
19,> 66.7,"COc1ccc(C2C(C(=O)c3cccs3)C(=O)C(=O)N2c2nnc(C)s2)cc1OC (stereo not given) [2-(3,4-dimethoxyphenyl)-1-(5-methyl-1,3,4-thiadiazol-2-yl)-4-oxidanyl-3-thiophen-2-ylcarbonyl-2H-pyrrol-5-one]"
20,47.9,"Cc1ccc(C2c3c([nH]c(=S)[nH]c3=O)N=C3CC(C)(C)CC(=O)C32)cc1 (stereo not given) [8,8-dimethyl-5-(4-methylphenyl)-2-sulfanylidene-5,7,9,10-tetrahydro-1H-pyrimido[4,5-b]quinoline-4,6-dione]"
21,> 66.7,CC1=NC(C)=C(C#N)C(c2ccc3ncccc3c2)C1C#N (stereo not given)
22,32,"CCOc1ccc(C(=O)C2C(=O)C(=O)N(CC3CCCO3)C2c2ccco2)cc1 (stereo not given) [(4Z)-4-[(4-ethoxyphenyl)-hydroxymethylidene]-5-(2-furanyl)-1-(2-oxolanylmethyl)pyrrolidine-2,3-dione]"
23,> 66.7,O=C1C(=O)N(CCN2CCOCC2)C(c2ccccc2)C1C(=O)c1cccs1 (stereo not given) [1-(2-morpholin-4-ylethyl)-4-oxidanyl-2-phenyl-3-thiophen-2-ylcarbonyl-2H-pyrrol-5-one]
24,13.5,"CCOc1cccc(C(=O)C2C(=O)C(=O)N(CCOC)C2c2ccc(C)o2)c1 (stereo not given) [(4Z)-4-[(3-ethoxyphenyl)-hydroxymethylidene]-1-(2-methoxyethyl)-5-(5-methyl-2-furanyl)pyrrolidine-2,3-dione]"
25,12.4,"O=C1C(=O)N(Cc2ccccc2)C(c2ccco2)C1C(=O)c1ccco1 (stereo not given) [1-Benzyl-4-(furan-2-carbonyl)-5-furan-2-yl-3-hydroxy-1,5-dihydro-pyrrol-2-one]"
26,> 66.7,O=C1Nc2ccccc2/C1=C1/SC(=S)N(CC2CCCO2)C1=O (stereo not given) [(5Z)-5-(2-ketoindolin-3-ylidene)-3-(tetrahydrofurfuryl)-2-thioxo-thiazolidin-4-one]
27,9.7,"COC(=O)c1[nH]c(C)c(C(=O)C2C(=O)C(=O)N(CCCN3CCOCC3)C2c2ccccn2)c1C (stereo not given) [methyl 4-{[4-hydroxy-1-[3-(4-morpholinyl)propyl]-5-oxo-2-(2-pyridinyl)-2,5-dihydro-1H-pyrrol-3-yl]carbonyl}-3,5-dimethyl-1H-pyrrole-2-carboxylate]"
28,> 66.7,"COCCCN1C(=O)C(=O)C(C(=O)c2ccc3c(c2)CC(C)O3)C1c1cccnc1 (stereo not given) [(4E)-1-(3-methoxypropyl)-4-[(2-methyl-2,3-dihydro-1-benzofuran-5-yl)-oxidanyl-methylidene]-5-pyridin-3-yl-pyrrolidine-2,3-dione]"
29,> 66.7,CCOc1cc(C2C(C(=O)c3ccco3)C(=O)C(=O)N2CCc2ccccc2)ccc1O (stereo not given) [2-(3-ethoxy-4-hydroxyphenyl)-3-(furan-2-carbonyl)-4-hydroxy-1-(2-phenylethyl)-2H-pyrrol-5-one]

row,Compound,IC50 [µM]
1,"CC1=C(C(=O)OC(C)C)[C@]2(C(=O)N(CC(N)=O)c3ccccc32)C(C#N)C(=N)O1 (stereo partly drawn) [(3R)-6'-amino-1-(2-amino-2-keto-ethyl)-5'-cyano-2-keto-2'-methyl-spiro[indoline-3,4'-pyran]-3'-carboxylic acid isopropyl ester]",> 66.7
